Reference: patent publication EP2008653A1, “Serotonergic compounds for treating neuronal illnesses” (Charité-Universitätsmedizin Berlin, priority 2007, dated 2008)

System: fokalen Ischämie in Mäusen
Experiment: Mouse model of focal ischemia (30 min MCAo/reperfusion), overall outcome
Assay type: in vivo, Mäuse
Conditions: Mirtazapin 20 mg/kg i.p. starting 7 days after MCAo/reperfusion
Description: Die erfindungsgemäßen neuroprotektiven und neuroregenerativen/neuroplastischen Effekte von SSRI auf neuronale Krankheiten wurde anhand eines anerkannten Tiermodells zur fokalen Ischämie in Mäusen untersucht. […] Tag nach der Induktion der Ischämie einsetzte.
Anschließend wurden die SRRI Effekte auf das Volumen der ischämischen Läsionen ausgewertet. Ferner wurden die Tiere Standard-Verhaltenstests unterzogen. Zudem wurden die Konzentrationen ausgewählter Neurotransmitter erfaßt.
Die Tierversuche wurden nach den Maßgaben des Tierschutzgesetzes in Übereinstimmung mit institutionellen und internationalen Richtlinien durchgeführt. Männliche 12936/SvEv-Mäuse (18-20 g, Bundesamt für Gesundheitsschutz Berlin) wurden in Gruppen von 4-5 Mäusen pro Käfig in Standardlaborkäfigen bei einer Umgebungstemperatur von 20-21°C bei einem 12 h-Licht-Dunkel-Rhythmus (8.00 Uhr/20.00 Uhr) mit freiem Zugang zu Futter und Wasser gehalten. Die Narkose der Mäuse erfolgte mit 1% Isofluran in 69% N20 und 30% 02 mit einem Narkoseverdampfer. Die Tiere wurden einer 30 min Fliamentokklusion der Arteria cerebri media (MCAo) unterworfen, wobei die Körpertemperatur und der regionale cerebrale Blutfluss wie beschrieben gemessen wurden (Endres et al., 1998). […]

CN1CCN2c3ncccc3Cc3ccccc3C2C1 (racemic) [Mirtazapin, (RS)-(±)-2-Methyl-1,2,3,4,10,14b-hexahydropyrazino [2,1-a]pyrido[2,3-c][2]benzazepin]
Ergebnisse (overall outcome in the MCAo model): entsprachen denjenigen, die mit Citalopram erreicht wurden
